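All cell lines were grown in 96-well plates and treated with compound for 48 hours. The concentration for 50% growth inhibition is given as GI50. TGI is the concentration that stops growth completely.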

Test systems include MDA-MB-435; SK-MEL-2 melanoma; SK-MEL-28 melanoma; MDA-MB-231 breast; UACC-62 melanoma; KM12 colon; OVCAR-5 ovarian; RPMI-8226 leukemia; EKVX NSCLC; MALME-3M melanoma.
Holding throughout (experiment): DTP human tumour cell line panel, 48 h

Turning to `Nc1ccccc1C#C/C=C\C#Cc1ccccc1OC(F)(F)F`, the GI50 (usually the concentration that inhibits growth by half) with MDA-MB-435 is 1.39 µM; in the assay on SK-MEL-2 melanoma, 6.38 µM; with SK-MEL-28 melanoma, 7.55 µM; in the assay on MDA-MB-231 breast it was 5.34 µM; in the assay with UACC-62 melanoma it was 5.94 µM; in the assay with KM12 colon, 4.78 µM. The GI50 in the assay with OVCAR-5 ovarian was 13 µM; with RPMI-8226 leukemia, 3.55 µM; in the assay on EKVX NSCLC it was 9.16 µM; in the assay on MALME-3M melanoma it was 11.4 µM. Moreover, the TGI – broadly, the concentration at which net growth stops – in the assay with MDA-MB-435 turned out to be 6.04 µM; with SK-MEL-2 melanoma, 29 µM; in the assay on SK-MEL-28 melanoma, 36.8 µM; in the assay with MDA-MB-231 breast, 24.7 µM; with UACC-62 melanoma, 21 µM; in the assay on KM12 colon, 27.3 µM. Also, the TGI in the assay with OVCAR-5 ovarian amounted to 44.1 µM; in the assay on RPMI-8226 leukemia, 18 µM; in the assay with EKVX NSCLC it was 58.7 µM; in the assay with MALME-3M melanoma it was 38.1 µM.
With `CCOC(=O)Cn1c(C(F)(F)F)nc2nc(Cl)c(Cl)nc21`, the TGI with MDA-MB-435 is greater than 100 µM; in the assay with SK-MEL-2 melanoma, 60.2 µM; in the assay with SK-MEL-28 melanoma it was greater than 100 µM; in the assay with MDA-MB-231 breast it was greater than 100 µM; with UACC-62 melanoma, greater than 78.4 µM; in the assay on KM12 colon, 34 µM. Moreover, the TGI in the assay with OVCAR-5 ovarian was greater than 100 µM; in the assay with RPMI-8226 leukemia it was 26.7 µM; in the assay with EKVX NSCLC, 29.4 µM; in the assay with MALME-3M melanoma, greater than 100 µM.
Take `OCCN(CCO)c1ncnc2c1ncn2Cc1ccc(CCl)cc1`: the GI50 was 14.5 µM with MDA-MB-435; 16.5 µM in the assay with SK-MEL-2 melanoma; 23.8 µM in the assay with SK-MEL-28 melanoma; 18 µM in the assay on MDA-MB-231 breast; 18 µM in the assay with UACC-62 melanoma; 14.3 µM with KM12 colon. Moreover, the GI50 with OVCAR-5 ovarian is 14.1 µM; with RPMI-8226 leukemia, 17.2 µM; with EKVX NSCLC, 16.6 µM; with MALME-3M melanoma, 12.8 µM. In addition, the TGI stood at 29.3 µM in the assay on MDA-MB-435; 41.1 µM in the assay with SK-MEL-2 melanoma; 63.8 µM in the assay on SK-MEL-28 melanoma; 35.5 µM with MDA-MB-231 breast; 33.5 µM in the assay on UACC-62 melanoma; 29.2 µM in the assay with KM12 colon. Also, the TGI in the assay on OVCAR-5 ovarian is 27.8 µM; in the assay with RPMI-8226 leukemia, greater than 100 µM; in the assay with EKVX NSCLC, 31.8 µM; with MALME-3M melanoma, 27.3 µM.
On to `CCN(CC)N=Nc1c(C(N)=O)n[nH]c1C`, for which the TGI with MDA-MB-435, in the assay on SK-MEL-2 melanoma, in the assay with SK-MEL-28 melanoma, with MDA-MB-231 breast, in the assay on UACC-62 melanoma and in the assay on KM12 colon was greater than 100 µM in each case. For the same compound, the TGI with RPMI-8226 leukemia, with EKVX NSCLC and with MALME-3M melanoma was greater than 100 µM each time.
With `NS(=O)(=O)OC[C@@H]1C[C@@H](n2ccc3c(NC4CCc5ccccc54)ncnc32)C[C@@H]1O` (some centres undefined), the GI50 in the assay on MDA-MB-435 was 5.75 µM; in the assay on SK-MEL-2 melanoma it was 0.74 µM; in the assay on SK-MEL-28 melanoma, 3.94 µM; with MDA-MB-231 breast it was 10.1 µM; with UACC-62 melanoma, 0.0856 µM; in the assay on KM12 colon, 1.13 µM. For the same compound, the GI50 is 16.4 µM in the assay on OVCAR-5 ovarian, 5.41 µM in the assay on RPMI-8226 leukemia, 21.4 µM with EKVX NSCLC and 21.9 µM in the assay on MALME-3M melanoma. Moreover, the TGI in the assay with MDA-MB-435 was greater than 100 µM; in the assay on SK-MEL-2 melanoma, 21 µM; in the assay with SK-MEL-28 melanoma it was greater than 100 µM; in the assay on MDA-MB-231 breast it was greater than 100 µM; in the assay on UACC-62 melanoma, 20.6 µM; in the assay with KM12 colon, 49.1 µM. Besides, the concentration for total growth inhibition (TGI) is 96.9 µM in the assay with OVCAR-5 ovarian, 27.6 µM with RPMI-8226 leukemia, greater than 100 µM in the assay on EKVX NSCLC and greater than 92.8 µM in the assay on MALME-3M melanoma.
On to `CCN1CCN(Cc2ccc(NC(=O)c3cccc(C#Cc4cccc5[nH]nc(N)c45)c3)cc2C(F)(F)F)CC1`, for which the GI50 is 0.339 µM in the assay with MDA-MB-435; 0.352 µM with SK-MEL-2 melanoma; 0.568 µM with SK-MEL-28 melanoma; 0.12 µM in the assay on MDA-MB-231 breast; 0.509 µM in the assay with UACC-62 melanoma; 0.302 µM with KM12 colon. For the same compound, the GI50 with OVCAR-5 ovarian is 0.685 µM; in the assay on RPMI-8226 leukemia it was 0.702 µM; in the assay with EKVX NSCLC, 1.41 µM; in the assay with MALME-3M melanoma, 0.0273 µM. Further, the TGI was 1.57 µM in the assay on MDA-MB-435; 1.34 µM with SK-MEL-2 melanoma; 1.78 µM in the assay with SK-MEL-28 melanoma; 0.573 µM in the assay with MDA-MB-231 breast; 1.77 µM with UACC-62 melanoma; 1.33 µM in the assay on KM12 colon. For the same compound, the TGI with OVCAR-5 ovarian is 2.07 µM; with RPMI-8226 leukemia it was 3.04 µM; with EKVX NSCLC, 2.73 µM; with MALME-3M melanoma, 0.422 µM.
For the compound `O=[N+]([O-])c1ccc2c(c1)/C(=N/N=C1c3ccccc3Cc3ccccc31)c1cc([N+](=O)[O-])cc([N+](=O)[O-])c1-2`, the TGI in the assay with MDA-MB-435 was determined as 3.38 µM; in the assay with SK-MEL-2 melanoma it was 24.8 µM; with SK-MEL-28 melanoma, 9.05 µM; in the assay on MDA-MB-231 breast, 6.42 µM; in the assay on UACC-62 melanoma, 6.46 µM; in the assay on KM12 colon, 6.34 µM. Further, the TGI was 6 µM with OVCAR-5 ovarian, greater than 100 µM with RPMI-8226 leukemia, 12.3 µM in the assay on EKVX NSCLC and 6.46 µM in the assay on MALME-3M melanoma.
Regarding `COc1cnc2c(c1)C(=O)c1c-2n(CCCN2CCOCC2)c(=O)c2cc(F)ccc12`, the GI50 is 0.454 µM in the assay with MDA-MB-435; 1.67 µM in the assay with SK-MEL-2 melanoma; 1.2 µM in the assay on SK-MEL-28 melanoma; 1.6 µM in the assay on MDA-MB-231 breast; 0.235 µM with UACC-62 melanoma; 0.316 µM in the assay with KM12 colon. Besides, the GI50 in the assay on RPMI-8226 leukemia is 0.135 µM; in the assay on EKVX NSCLC it was 0.482 µM; with MALME-3M melanoma, 0.503 µM. Further, the TGI was greater than 100 µM in the assay with MDA-MB-435; 5.18 µM with SK-MEL-2 melanoma; greater than 100 µM in the assay on SK-MEL-28 melanoma; greater than 100 µM with MDA-MB-231 breast; 0.926 µM with UACC-62 melanoma; greater than 100 µM in the assay with KM12 colon. Also, the TGI with RPMI-8226 leukemia was 0.804 µM; in the assay on EKVX NSCLC, greater than 100 µM; with MALME-3M melanoma, 3.42 µM.
With `Fc1ccc(NC(=S)SCc2ccc3c(c2)OCO3)cc1F`, the TGI in the assay with MDA-MB-435 is 51.8 µM; in the assay on SK-MEL-2 melanoma, 36 µM; in the assay with SK-MEL-28 melanoma, 13 µM; in the assay with MDA-MB-231 breast, greater than 100 µM; in the assay on UACC-62 melanoma, 27.3 µM; in the assay with KM12 colon, 61.7 µM. The TGI is 46.3 µM with OVCAR-5 ovarian, 34.1 µM with EKVX NSCLC and 76.3 µM in the assay with MALME-3M melanoma.
For `CO/C(=N\N=C\c1ccc(C(F)(F)F)cc1)c1ccncc1`, the TGI with MDA-MB-435, with SK-MEL-2 melanoma, in the assay with MDA-MB-231 breast, in the assay with KM12 colon, with OVCAR-5 ovarian and in the assay on RPMI-8226 leukemia was greater than 10 µM throughout. For the same compound, the TGI with EKVX NSCLC and in the assay with MALME-3M melanoma was greater than 10 µM throughout.
